Source: publication PMC7516806, “Hybrid Antimicrobial Peptide Targeting Staphylococcus aureus and Displaying Anti-infective Activity in a Murine Model” (Frontiers in Microbiology, 2020)
Values after ≈ are worked out from the molar mass of the structure shown. Positions of bridges follow the written chain, without caps; N, C: chain ends. Residues, ends and D or L forms follow the SMILES beside them.

Assays:
S. typhimurium 14028 = test: MIC, modified microtiter dilution; type: cell-based, Salmonella typhimurium; conditions: MHB, 2–7 × 10^5 CFU/ml, 37°C, 24 h, no turbidity, at least three independent repeats
Excerpt: (§1) The experiment was repeated at least three times independently.

S. typhimurium 7731 = test: MIC, modified microtiter dilution; type: cell-based, Salmonella typhimurium; conditions: MHB, 2–7 × 10^5 CFU/ml, 37°C, 24 h, no turbidity, at least three independent repeats
Excerpt: as §1

E. coli K88 = conditions: MHB, 2–7 × 10^5 CFU/ml, 37°C, 24 h, no turbidity, at least three independent repeats
In short: (§2)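 Using a modified standard microtiter dilution, AMPs diluted in acetic acid (0.01%)/BSA (0.2%) met an equal volume of mid-log inoculum (2–7 × 10^5 CFU/ml, MHB). Incubation lasted 24 h at 37°C, with inoculated and sterile broth as positive and negative controls.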

E. coli K99 = conditions: MHB, 2–7 × 10^5 CFU/ml, 37°C, 24 h, no turbidity, at least three independent repeats
In short: as §2

[1] = test system: Staphylococcus aureus 29213; test: Bacterial resistance development, serial passaging; type: cell-based; conditions: serial passage at sub-MIC for 15 days
Excerpt: Staphylococcus aureus 29213 was employed to assess the development of resistance by the serial passaging method, as previously described ([Lyu et al., 2017]). Minimum inhibitory concentration testing was first conducted for all of the compounds to be tested, as described above. S. aureus was harvested from 96-well plates of sub-MIC levels, diluted in MHB to a concentration of 2–7 × 10^5 CFU/mL, and then subjected to MIC determination for up to 15 days. The change in MIC values determines the development of antibiotic resistance in S. aureus.

[2] = Systemic toxicity after intraperitoneal injection; type: in vivo, mice; conditions: 100 μL
Description: The mice were inoculated by intraperitoneal injection with 100 μL of S2 (80 MIC), and saline was used as the control. Signs of animal distress and changes in body weight were closely monitored. After five days, all the mice were euthanized, and the blood biochemistry parameters were determined ([Mishra et al., 2019]).

L. plantarum 8014 = test: MIC, modified microtiter dilution; type: cell-based, Lactobacillus plantarum; conditions: 2–7 × 10^5 CFU/ml, 37°C, 24 h, no turbidity, at least three independent repeats
Excerpt: as §1

S. aureus 25923 = test: MIC, modified microtiter dilution; type: cell-based, Staphylococcus aureus; conditions: MHB, 2–7 × 10^5 CFU/ml, 37°C, 24 h, no turbidity, at least three independent repeats
Excerpt: as §1

S. aureus 29213 = test: MIC, modified microtiter dilution; type: cell-based, Staphylococcus aureus; conditions: MHB, 2–7 × 10^5 CFU/ml, 37°C, 24 h, no turbidity, at least three independent repeats
Excerpt: as §1

S. aureus ATCC 29213 = test: SEM and TEM characterization of membrane damage; type: cell-based, Staphylococcus aureus
Description: Bacterial membrane damage induced by the peptide was visualized using scanning electron microscopy (SEM). S. aureus ATCC 29213 was washed three times using PBS after growing to the mid-log phase and diluted to an OD600 = 0.2. The bacteria were incubated for 30 min with peptide, and the bacterial growth in PBS was used as the control. The cells were washed twice with PBS and fixed with 2.5% (w/v) glutaraldehyde at 4°C overnight. The bacterial cells were dehydrated with a graded series of ethanol (50, 70, 90, and 100%) for 10 min at each step. The samples were transferred to a mixture (v: v = 1:1) of alcohol and tert-butanol for 30 min and tert-butanol alone for 1 h. The dried bacterial specimens, which were obtained using a critical point dryer, were coated and visualized under a field emission scanning electron microscope (Hitachi S-4800, Japan).
The processing method of the samples for transmission electron microscopy (TEM) was the same as the treatment for SEM. The samples were then prefixed with 2.5% glutaraldehyde at 4°C overnight, post-fixed with osmium tetroxide for 70 min, and washed twice with PBS (pH 7.2). Subsequently, the samples were dehydrated in different concentrations of ethanol (50, 70, and 90%) for 8 min in series and 10 min in 100% ethanol twice and then transferred to a mixture (v:v = 1:1) of 100% ethanol and acetone for 10 min. […]

S. pullorum 7913 = test: MIC, modified microtiter dilution; type: cell-based, Salmonella pullorum; conditions: MHB, 2–7 × 10^5 CFU/ml, 37°C, 24 h, no turbidity, at least three independent repeats
Excerpt: as §1

[3] = test system: Staphylococcus aureus 29213; test: Propidium iodide uptake assay; type: cell-based; conditions: 0.5 × MIC, MIC and 2 × MIC; 10 μg/mL PI; ex 535 nm, em 617 nm
Description: Staphylococcus aureus 29213 was washed three times with buffer (5 mM HEPES, 5 mM glucose, pH 7.4) after the bacterium grew to the mid-log phase and then diluted to an OD600 = 0.05. Propidium iodide was then added to the final concentration of 10 μg/mL and incubated for 30 min at 4°C. The peptides were added to 12-well plates, which were filled with 2 mL of the cell suspension. An F-4500 fluorescence spectrophotometer (Hitachi, Japan) was employed to measure the fluorescence value at an excitation wavelength of 535 nm and an emission wavelength of 617 nm. Maximal augmentation was monitored, and the fluorescence of the mixture of bacteria and dye served as the blank control ([Morita et al., 2015]).

[4] = mean, intraperitoneal 80 MIC, after five days

## CC(C)C[C@H](NC(=O)[C@H](CC(C)C)NC(=O)[C@H](Cc1c[nH]c2ccccc12)NC(=O)[C@H](Cc1c[nH]c2ccccc12)NC(=O)[C@H](Cc1c[nH]c2ccccc12)NC(=O)[C@H](CCCNC(=N)N)NC(=O)[C@@H]1CSSC[C@H](N)C(=O)N[C@@H](C)C(=O)N[C@@H](CO)C(=O)N[C@@H](Cc2ccc(O)cc2)C(=O)N[C@@H](Cc2ccccc2)C(=O)N1)C(N)=O [Peptide S2] (H-CASYFCRWWWLL-NH2; disulfide 1-6; N-terminus assumed)
S. typhimurium 14028
  MIC S. typhimurium 14028: >64 µM
S. typhimurium 7731
  MIC S. typhimurium 7731: >64 µM
E. coli K88
  MIC E. coli K88: >64 µM
E. coli K99
  MIC E. coli K99: >64 µM
[1]
  change in MIC value, 15th day versus first day: remained almost constant
[2]; intraperitoneal, 80 MIC, after five days
  blood parameters versus saline treatment group: unaltered
[2]; intraperitoneal, 80 MIC, monitored five days
  clinical signs of toxicity: no clinical signs indicative of toxicity
[2]; [4]
  blood Cl-: 111.25 mmol/L
  blood Creatinine: 12.4 µM
  blood Glucose: 10.17 mmol/L
  blood I.Phos.: 2.335 mmol/L
  blood K+: 5.84 mmol/L
  blood Na+: 149 mmol/L
  blood Urea: 9.43 mmol/L
L. plantarum 8014
  MIC L. plantarum 8014: >64 µM
S. aureus 25923
  MIC S. aureus 25923: 8 µM (≈ 13 µg/mL)
S. aureus 29213
  MIC S. aureus 29213: 8 µM (≈ 13 µg/mL)
S. aureus ATCC 29213; at its MIC for 30 min
  morphology and membrane integrity by SEM: wrinkles, disrupted membrane integrity, and leakage of cell contents
S. aureus ATCC 29213; treatment for 30 min
  morphology and internal structure by TEM: the membrane of S. aureus was damaged, and a substantial outflow of cytoplasm was observed
S. pullorum 7913
  MIC S. pullorum 7913: >64 µM
[3]
  PI uptake (PI fluorescence): rapidly disrupted the bacterial membrane and caused PI uptake
